Data from the NIST ThermoML archive (doi:10.1016/j.jct.2008.12.005).
Numbers after ± are expanded uncertainties.

Experiment: activity coefficient (dimensionless); of the first substance listed, at infinite dilution; xn = mol fraction of the nth substance listed
Settings: 101 kPa, Liquid, Chromatography, x1 = 0

Compound `C1CCCCCC1` [cycloheptane] + CC[S+](CC)CC.O=S(=O)([N-]S(=O)(=O)C(F)(F)F)C(F)(F)F has an activity coefficient (298.15 K) of 21.7 ± 1.5, an activity coefficient (308.15 K) of 19.8 ± 1.4 and an activity coefficient (318.15 K) of 18 ± 1.2. For the same compound, the activity coefficient (328.15 K) was 16.5 ± 1.1, the activity coefficient (338.15 K) was 15.2 ± 1 and the activity coefficient (348.15 K) was 14.1 ± 1. It also gave an activity coefficient (358.15 K) of 13.1 ± 0.9 and an activity coefficient (368.15 K) of 12.2 ± 0.8.

In the case of `Cc1ccccc1C` [1,2-dimethylbenzene] + CC[S+](CC)CC.O=S(=O)([N-]S(=O)(=O)C(F)(F)F)C(F)(F)F, the activity coefficient (308.15 K) is reported as 2.05 ± 0.14, the activity coefficient (318.15 K) is reported as 2.07 ± 0.14 and the activity coefficient (328.15 K) is reported as 2.09 ± 0.14. For the same compound, the activity coefficient (338.15 K) was 2.1 ± 0.14, the activity coefficient (348.15 K) was 2.12 ± 0.14 and the activity coefficient (358.15 K) was 2.13 ± 0.14. It also gave an activity coefficient (368.15 K) of 2.15 ± 0.15.

Compound `Cc1cccc(C)c1` [1,3-dimethylbenzene] + CC[S+](CC)CC.O=S(=O)([N-]S(=O)(=O)C(F)(F)F)C(F)(F)F has an activity coefficient (308.15 K) of 2.29 ± 0.16, an activity coefficient (318.15 K) of 2.31 ± 0.16 and an activity coefficient (328.15 K) of 2.33 ± 0.16. For the same compound, the activity coefficient (338.15 K) was 2.34 ± 0.16, the activity coefficient (348.15 K) was 2.36 ± 0.16 and the activity coefficient (358.15 K) was 2.38 ± 0.16. For the same compound, the activity coefficient (368.15 K) was 2.39 ± 0.16.

`Cc1ccc(C)cc1` [1,4-dimethylbenzene] + CC[S+](CC)CC.O=S(=O)([N-]S(=O)(=O)C(F)(F)F)C(F)(F)F showed an activity coefficient (308.15 K) of 2.27 ± 0.15, an activity coefficient (318.15 K) of 2.3 ± 0.16 and an activity coefficient (328.15 K) of 2.32 ± 0.16. It also gave an activity coefficient (338.15 K) of 2.34 ± 0.16, an activity coefficient (348.15 K) of 2.36 ± 0.16 and an activity coefficient (358.15 K) of 2.38 ± 0.16. The activity coefficient (368.15 K) was 2.4 ± 0.16.

`C=CCCCC` [hex-1-ene] + CC[S+](CC)CC.O=S(=O)([N-]S(=O)(=O)C(F)(F)F)C(F)(F)F gave an activity coefficient (298.15 K) of 12.5 ± 0.9, an activity coefficient (308.15 K) of 11.8 ± 0.8 and an activity coefficient (318.15 K) of 11.3 ± 0.8. The activity coefficient (328.15 K) was 10.6 ± 0.7, the activity coefficient (338.15 K) was 10.1 ± 0.7 and the activity coefficient (348.15 K) was 9.69 ± 0.66. The activity coefficient (358.15 K) was 9.3 ± 0.63 and the activity coefficient (368.15 K) was 8.94 ± 0.61.

In the case of `C=CCCCCCC` [oct-1-ene] + CC[S+](CC)CC.O=S(=O)([N-]S(=O)(=O)C(F)(F)F)C(F)(F)F, the activity coefficient (298.15 K) is reported as 27 ± 1.8, the activity coefficient (308.15 K) is reported as 25 ± 1.7 and the activity coefficient (318.15 K) is reported as 23.2 ± 1.6. For the same compound, the activity coefficient (328.15 K) was 21.8 ± 1.5, the activity coefficient (338.15 K) was 20.4 ± 1.4 and the activity coefficient (348.15 K) was 19.2 ± 1.3. The activity coefficient (358.15 K) was 18.2 ± 1.2 and the activity coefficient (368.15 K) was 17.3 ± 1.2.

Work on `CCCCCCCCCC` [decane] + CC[S+](CC)CC.O=S(=O)([N-]S(=O)(=O)C(F)(F)F)C(F)(F)F yielded an activity coefficient (298.15 K) of 131 ± 9, an activity coefficient (308.15 K) of 114 ± 8 and an activity coefficient (318.15 K) of 101 ± 7. It also gave an activity coefficient (328.15 K) of 89.6 ± 6.1, an activity coefficient (338.15 K) of 80 ± 5.5 and an activity coefficient (348.15 K) of 72.5 ± 5. For the same compound, the activity coefficient (358.15 K) was 65.8 ± 4.5 and the activity coefficient (368.15 K) was 59.7 ± 4.1.

In the case of `CCCCO` [butan-1-ol] + CC[S+](CC)CC.O=S(=O)([N-]S(=O)(=O)C(F)(F)F)C(F)(F)F, the activity coefficient (308.15 K) is reported as 3.32 ± 0.23, the activity coefficient (318.15 K) is reported as 2.96 ± 0.2 and the activity coefficient (328.15 K) is reported as 2.66 ± 0.18. The activity coefficient (338.15 K) was 2.41 ± 0.16, the activity coefficient (348.15 K) was 2.2 ± 0.15 and the activity coefficient (358.15 K) was 2 ± 0.14. It also gave an activity coefficient (368.15 K) of 1.84 ± 0.12.

Compound `CCCCCCCCC` [nonane] + CC[S+](CC)CC.O=S(=O)([N-]S(=O)(=O)C(F)(F)F)C(F)(F)F has an activity coefficient (298.15 K) of 87.2 ± 6, an activity coefficient (308.15 K) of 77.6 ± 5.3 and an activity coefficient (318.15 K) of 68.6 ± 4.7. For the same compound, the activity coefficient (328.15 K) was 61.8 ± 4.2, the activity coefficient (338.15 K) was 55.5 ± 3.8 and the activity coefficient (348.15 K) was 50.5 ± 3.5. The activity coefficient (358.15 K) was 46 ± 3.1 and the activity coefficient (368.15 K) was 42.4 ± 2.9.

Work on `C#CCCC` [1-pentyne] + CC[S+](CC)CC.O=S(=O)([N-]S(=O)(=O)C(F)(F)F)C(F)(F)F yielded an activity coefficient (298.15 K) of 2.52 ± 0.17, an activity coefficient (308.15 K) of 2.52 ± 0.17 and an activity coefficient (318.15 K) of 2.53 ± 0.17. The activity coefficient (328.15 K) was 2.54 ± 0.17, the activity coefficient (338.15 K) was 2.54 ± 0.17 and the activity coefficient (348.15 K) was 2.55 ± 0.17. It also gave an activity coefficient (358.15 K) of 2.55 ± 0.17 and an activity coefficient (368.15 K) of 2.55 ± 0.17.

Compound `C=CCCC` [1-pentene] + CC[S+](CC)CC.O=S(=O)([N-]S(=O)(=O)C(F)(F)F)C(F)(F)F has an activity coefficient (298.15 K) of 8.81 ± 0.6, an activity coefficient (308.15 K) of 8.41 ± 0.57 and an activity coefficient (318.15 K) of 8.06 ± 0.55. For the same compound, the activity coefficient (328.15 K) was 7.72 ± 0.53, the activity coefficient (338.15 K) was 7.4 ± 0.5 and the activity coefficient (348.15 K) was 7.17 ± 0.49. It also gave an activity coefficient (358.15 K) of 6.89 ± 0.47 and an activity coefficient (368.15 K) of 6.69 ± 0.46.

`CCCCCCC` [heptane] + CC[S+](CC)CC.O=S(=O)([N-]S(=O)(=O)C(F)(F)F)C(F)(F)F showed an activity coefficient (298.15 K) of 40.4 ± 2.8, an activity coefficient (308.15 K) of 36.9 ± 2.5 and an activity coefficient (318.15 K) of 33.5 ± 2.3. The activity coefficient (328.15 K) was 30.5 ± 2.1, the activity coefficient (338.15 K) was 28.1 ± 1.9 and the activity coefficient (348.15 K) was 26 ± 1.8. For the same compound, the activity coefficient (358.15 K) was 24.1 ± 1.6 and the activity coefficient (368.15 K) was 22.5 ± 1.5.
